# Results: patent publication US8008094B2, “Methods for analyzing interactions between proteins and sugar chains” (National Institute of Advanced Industrial Science and …, priority 2003, dated 2011)
# Columns and labels:
# [1] = tested on: binding of Cy3-ASF to lectin spots; experiment: Inhibition of lectin-sugar chain interaction on lectin array by competitively inhibiting sugar (Example 1); settings: Cy3-ASF probe, increasing inhibiting sugar concentration
# [2] = tested on: glycoprotein probe derived from mouse brain; experiment: Lectin array (40 lectins) with crude brain-derived glycoprotein probe plus inhibiting sugar (Example 7); format: binding; settings: 10 mM inhibiting sugar added to brain-derived glycoprotein probe, FIG. 14C
# Method: A glycoprotein sample extracted and purified from mouse liver and a glycoprotein sample extracted and purified from mouse brain were labeled with Cy3 to form probes, then contacted with a lectin array onto which 40 types of lectins were immobilized, and the sugar chain profile of the entire extracted mouse glycoprotein mixture was observed. Next, 10 mM of lactose was added as a competitively inhibiting sugar to the brain-derived glycoprotein probe used in the previous experiment, and the sugar chain profile was observed (FIG. 14C). […] As shown by this experiment, even when using a lectin array for the sugar chain profiling of cruder samples, comparisons and analyses between individuals can be made easier and faster by the combined use of addition experiments that use various inhibiting sugars, and comparison and analysis after narrowing down the obtained data.
smiles,measurement,setting,value
OC[C@H]1O[C@@H](O[C@H]2[C@H](O)[C@@H](O)C(O)O[C@@H]2CO)[C@H](O)[C@@H](O)[C@H]1O (some centres unmarked) [lactose],fluorescence intensity of the spots in the presence of inhibiting sugar,[1],decreases as the concentration of lactose (competitively inhibiting sugar) increases
same,change of fluorescence signal pattern due to competitive inhibition,[2],reduction was observed mainly in the signals of lactosamine-recognizing lectins
